Measured values from PMC9524145, “Open channel block of Kv1.5 channels by HMQ1611” (Frontiers in Pharmacology, 2022).

Legend:
Format in all cases: cell-based
[1] = biological target: T1, wild-type (WT) hKv1.5 (KCNA5) channel (Homo sapiens, UniProt P22460); test: whole-cell patch-clamp of wild-type hKv1.5 current in transfected CHO cells
T1 construct: Full-length cDNA encoding wild-type (WT) hKv1.5 (KCNA5) subcloned into the pcDNA3.1 expression vector; expressed in transfected cells; host or cells: CHO cells, transient transfection (pcDNA3.1), GFP cDNA co-transfected as a separate marker
T1 sequence (P22460 whole entry): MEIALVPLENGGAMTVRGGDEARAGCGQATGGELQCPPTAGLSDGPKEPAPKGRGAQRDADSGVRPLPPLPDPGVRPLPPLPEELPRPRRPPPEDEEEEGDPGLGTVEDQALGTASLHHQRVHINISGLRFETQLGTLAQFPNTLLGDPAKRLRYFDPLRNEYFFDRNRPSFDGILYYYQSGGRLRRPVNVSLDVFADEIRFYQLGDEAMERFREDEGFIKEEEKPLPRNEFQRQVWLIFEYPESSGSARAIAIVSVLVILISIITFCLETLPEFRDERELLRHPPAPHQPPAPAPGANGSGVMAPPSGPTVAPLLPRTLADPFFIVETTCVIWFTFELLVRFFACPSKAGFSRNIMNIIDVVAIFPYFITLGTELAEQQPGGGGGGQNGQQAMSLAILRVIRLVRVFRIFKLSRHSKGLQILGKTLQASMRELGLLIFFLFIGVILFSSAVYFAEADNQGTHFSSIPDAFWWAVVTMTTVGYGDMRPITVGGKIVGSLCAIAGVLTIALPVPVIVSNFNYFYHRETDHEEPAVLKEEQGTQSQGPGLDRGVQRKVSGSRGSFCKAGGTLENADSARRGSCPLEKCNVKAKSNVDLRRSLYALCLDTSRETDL
Procedure: Chinese hamster ovary (CHO) cells donated by Dr. Takeru Makiyama (Kyoto University Graduate School of Medicine, Japan) were cultured in Dulbecco’s modified Eagle’s medium/Ham’s F-12 (DMEM/F-12) medium supplemented with 10% fetal bovine serum and antibiotics (100 IU/ml penicillin and 100 μg/ml streptomycin) in a humidified atmosphere with 5% CO2 and 95% air at 37°C. Cells were passaged every 3–4 days with trypsin–EDTA, and a portion of the cells was seeded onto glass cover slips (5 × 3 mm^2) for subsequent transfection.
(§1) Full-length cDNA encoding wild-type (WT) hKv1.5 (KCNA5) subcloned into the pcDNA3.1 expression vector was kindly provided by Dr. David Fedida (University of British Columbia, Canada). All hKv1.5 mutants (T462C, H463C, T479A, T480A, R487V, A501V, I502A, V505A, I508A, A509G, L510A, V512A, and V516A cDNAs) were constructed using a QuickChange II XL site-directed mutagenesis kit according to the manufacturer’s instructions (Stratagene, La Jolla, CA, USA) and subcloned into the pcDNA3.1. All mutants were fully sequenced (ABI3100x; Applied Biosystems, Foster City, CA, USA) to ensure fidelity.
(§2) WT or mutant hKv1.5 cDNA was transiently transfected into CHO cells together with green fluorescent protein (GFP) cDNA (0.5 μg WT or mutant hKv1.5 + 0.5 μg GFP) using Lipofectamine (Invitrogen Life Technologies, Carlsbad, CA, USA). Patch-clamp experiments were conducted on GFP-positive cells 48 h after transfection.
(§3) Kv1.5 currents were recorded using an EPC-8 patch-clamp amplifier (HEKA, Lambrecht, Germany) at 25°C. The data were low-pass filtered at 1 kHz, acquired at 5 kHz through an LIH-1600 analogue-to-digital converter (HEKA), and stored on a hard disc drive using Pulse/PulseFit software (HEKA). For experiments to measure the activation time course of hKv1.5 currents, the data were low-pass filtered at 10 kHz and sampled at 50 kHz. […] Cells attached to glass cover slips were transferred to a recording chamber (0.5 ml in volume) mounted on the stage of an inverted microscope (ECLIPSE TE2000-U, Nikon, Tokyo, Japan) and perfused continuously with Tyrode solution at a flow rate of 1 ml/min.
hKv1.5 channel currents were elicited by applying 300 ms depolarizing steps from a holding potential of -80 mV to various levels of -50 mV to +50 mV in 10 mV steps with a return potential of -40 mV, and each stimulus interval was longer than 10 s. Voltage-dependent activation of hKv1.5 channels was assessed by fitting the normalized I–V relations of the tail currents to a Boltzmann equation: Itail=1/(1+exp((V1/2−Vm)/k)), (1) where I tail is the tail current amplitude normalized with reference to the maximum value measured at +50 mV, V 1/2 is the voltage at half-maximal activation, V m is the test potential, and k is the slope factor.
(§4) The concentration–response curve for inhibition of hKv1.5 current by HMQ1611 was drawn by a least-squares fit of the Hill equation: %Control=1/(1+(IC50/[D])^nH), (2) where % Control represents the current in presence of the drug normalized with reference to the control amplitude (expressed as a percentage), IC50 is the concentration of HMQ1611 causing a half-maximal inhibition, nH is the Hill coefficient, and [D] is the drug concentration.
The apparent rate constants for binding (k +1) and unbinding (k -1) were obtained by fitting the equation: τD=1/(k+1[D]+k−1), (3) where τD is the drug-induced time constant, which was calculated from single exponential fits to the traces of current decay during the depolarizing step to +30 mV.
The apparent dissociation constant K D is expressed as kD=k−1/k+1. (4)
Deactivation kinetics of hKv1.5 were determined by fitting a single exponential function to the tail current trace (obtained by depolarizing a cell to +30 mV for 300 ms, followed by a repolarizing pulse to -40 mV).
Normal Tyrode solution contained 140 mM NaCl, 5.4 mM KCl, 1.8 mM CaCl2, 0.5 mM MgCl2, 0.33 mM NaH2PO4, 5.5 mM glucose, and 5.0 mM HEPES (pH adjusted to 7.4 with NaOH). […]

[2] = biological target: T2, hKv1.5 T479A mutant channel (Homo sapiens, UniProt P22460, T479A); test: whole-cell patch-clamp of T479A mutant hKv1.5 current in CHO cells; details: 5 μM HMQ1611, late current at +30 mV, n = 8, p < 0.01 vs. WT
T2 construct: Full-length cDNA encoding wild-type (WT) hKv1.5 (KCNA5) subcloned into the pcDNA3.1 expression vector; expressed in transfected cells; host or cells: CHO cells, transient transfection (pcDNA3.1), GFP cDNA co-transfected as a separate marker
T2 sequence (P22460 whole entry T479A): as the sequence (P22460 whole entry) above, with T479A counted along it
Excerpt: as §1
(§5) WT or mutant hKv1.5 cDNA was transiently transfected into CHO cells together with green fluorescent protein (GFP) cDNA (0.5 μg WT or mutant hKv1.5 + 0.5 μg GFP) using Lipofectamine (Invitrogen Life Technologies, Carlsbad, CA, USA). […]
(§6) Kv1.5 currents were recorded using an EPC-8 patch-clamp amplifier (HEKA, Lambrecht, Germany) at 25°C. […]
as §4, with “concentration. […]” for “concentration.”

[3] = biological target: T3, hKv1.5 T480A mutant channel (Homo sapiens, UniProt P22460, T480A); test: whole-cell patch-clamp of T480A mutant hKv1.5 current in CHO cells
T3 construct: Full-length cDNA encoding wild-type (WT) hKv1.5 (KCNA5) subcloned into the pcDNA3.1 expression vector; expressed in transfected cells; host or cells: CHO cells, transient transfection (pcDNA3.1), GFP cDNA co-transfected as a separate marker
T3 sequence (P22460 whole entry T480A): as the sequence (P22460 whole entry) above, with T480A counted along it
Excerpt: as §1, §5, §6
as §4, with “concentration. […]” for “concentration.”

[4] = biological target: T4, hKv1.5 V505A mutant channel (Homo sapiens, UniProt P22460, V505A); test: whole-cell patch-clamp of V505A mutant hKv1.5 current in CHO cells
T4 construct: Full-length cDNA encoding wild-type (WT) hKv1.5 (KCNA5) subcloned into the pcDNA3.1 expression vector; expressed in transfected cells; host or cells: CHO cells, transient transfection (pcDNA3.1), GFP cDNA co-transfected as a separate marker
T4 sequence (P22460 whole entry V505A): as the sequence (P22460 whole entry) above, with V505A counted along it
Excerpt: as §1, §2, §3
as §4, with “concentration. […]” for “concentration.”

[5] = biological target: T5, hKv1.5 I508A mutant channel (Homo sapiens, UniProt P22460, I508A); test: whole-cell patch-clamp of I508A mutant hKv1.5 current in CHO cells
T5 construct: Full-length cDNA encoding wild-type (WT) hKv1.5 (KCNA5) subcloned into the pcDNA3.1 expression vector; expressed in transfected cells; host or cells: CHO cells, transient transfection (pcDNA3.1), GFP cDNA co-transfected as a separate marker
T5 sequence (P22460 whole entry I508A): as the sequence (P22460 whole entry) above, with I508A counted along it
Excerpt: as §1, §2, §3
as §4, with “concentration. […]” for “concentration.”

[6] = biological target: T6, hKv1.5 L510A mutant channel (Homo sapiens, UniProt P22460, L510A); test: whole-cell patch-clamp of L510A mutant hKv1.5 current in CHO cells; details: 5 μM HMQ1611, late current at +30 mV, n = 6, p < 0.01 vs. WT
T6 construct: Full-length cDNA encoding wild-type (WT) hKv1.5 (KCNA5) subcloned into the pcDNA3.1 expression vector; expressed in transfected cells; host or cells: CHO cells, transient transfection (pcDNA3.1), GFP cDNA co-transfected as a separate marker
T6 sequence (P22460 whole entry L510A): as the sequence (P22460 whole entry) above, with L510A counted along it
Excerpt: as §1, §5, §6
as §4, with “concentration. […]” for “concentration.”

[7] = biological target: T7, hKv1.5 V512A mutant channel (Homo sapiens, UniProt P22460, V512A); test: whole-cell patch-clamp of V512A mutant hKv1.5 current in CHO cells; details: 5 μM HMQ1611, late current at +30 mV, n = 6, p < 0.01 vs. WT
T7 construct: Full-length cDNA encoding wild-type (WT) hKv1.5 (KCNA5) subcloned into the pcDNA3.1 expression vector; expressed in transfected cells; host or cells: CHO cells, transient transfection (pcDNA3.1), GFP cDNA co-transfected as a separate marker
T7 sequence (P22460 whole entry V512A): as the sequence (P22460 whole entry) above, with V512A counted along it
Excerpt: as §1, §5, §6
as §4, with “concentration. […]” for “concentration.”

[8] = biological target: T8, hKv1.5 V516A mutant channel (Homo sapiens, UniProt P22460, V516A); test: whole-cell patch-clamp of V516A mutant hKv1.5 current in CHO cells
T8 construct: Full-length cDNA encoding wild-type (WT) hKv1.5 (KCNA5) subcloned into the pcDNA3.1 expression vector; expressed in transfected cells; host or cells: CHO cells, transient transfection (pcDNA3.1), GFP cDNA co-transfected as a separate marker
T8 sequence (P22460 whole entry V516A): as the sequence (P22460 whole entry) above, with V516A counted along it
Excerpt: as §1, §5, §6
as §4, with “concentration. […]” for “concentration.”

[9] = from τD of current decay at +30 mV vs drug concentration

SMILES: CNC(=O)c1ccc(OC)c(OCC(=O)Nc2ccc(F)c(Cl)c2)c1-c1c(C(=O)NC)ccc(OC)c1OCC(=O)Nc1ccc(F)c(Cl)c1 [HMQ1611]
- time to start of inhibition on exposure ([1]; 5 μM HMQ1611): 5 to 10 s
- time to steady state inhibition ([1]; 5 μM HMQ1611): ≤ 3 min
- peak current amplitude at the first depolarizing step ([1]; 5 μM HMQ1611, 1 Hz train, control 6.11 ± 0.99 nA, n = 7, p > 0.05): 5.97 ± 0.98 nA
- decrease of peak amplitude of hKv1.5 current at the 20th pulse vs first pulse ([1]; 5 μM HMQ1611, 1 Hz, control 18.29 ± 2.20%, n = 7): 46.57 ± 4.19%
- peak current amplitude at the first depolarizing step ([1]; 5 μM HMQ1611, 2 Hz train, control 5.82 ± 1.14 nA, n = 6, p > 0.05): 5.67 ± 0.99 nA
- decrease of peak amplitude of hKv1.5 current at the 20th pulse vs first pulse ([1]; 5 μM HMQ1611, 2 Hz, control 32.73 ± 1.74%, n = 6): 66.47 ± 2.38%
- steady state level of inhibition of hKv1.5 current ([1]; 5 μM HMQ1611, representative time course, end of 300 ms step to +30 mV, within 3 min): approximately 86 % inhibition
- activation time constant ([1]; 5 μM HMQ1611, step to +30 mV, control 1.50 ± 0.25 ms, n = 7, p > 0.05): 1.47 ± 0.18 ms
- inhibition at 5 µM ([1]; CHO, WT, 5 μM HMQ1611, late current at end of 300 ms step to +30 mV, n = 7): 83.9 ± 4.06%
- IC50 ([1]; WT, late current at end of 300 ms depolarizing step to +30 mV, CHO cells, Hill fit, n = 7, read-out: IC50 for inhibition of hKv1.5 current): 2.07 ± 0.21 µM
- recovery of hKv1.5 current after washout ([1]; after 5 μM HMQ1611, within 10 min after washout with normal Tyrode solution): 94.64 % of the control value
- Kd ([1]; apparent dissociation constant, +30 mV, read-out: KD value derived by (k-1)/(k+1)): 4.48 µM
- slope factor k of Boltzmann activation fit ([1]; during exposure to 5 μM HMQ1611, control 14.09, 6 cells, p < 0.01 vs. control): 1.34
- V1/2 (voltage at half-maximal activation, tail currents) ([1]; during exposure to 5 μM HMQ1611, control -0.76 mV, 6 cells, p < 0.01 vs. control): -29.9 mV
- apparent binding rate constant (k+1) [1, 9]: 6.65e+06 M⁻¹ s⁻¹
- apparent unbinding rate constant (k-1) [1, 9]: 29.9 s⁻¹
- deactivation time constant ([1]; in presence of 5 μM HMQ1611, tail current at -40 mV after +30 mV, control 14.8 ± 1.4 ms, n = 10, p > 0.05): 13.1 ± 2.3 ms
- effect of intracellular dialysis on Kv1.5 currents ([1]; intracellular dialysis of cells with 5 μM HMQ1611 for 4 min after whole-cell configuration): did not change the Kv1.5 currents
- inhibition at 5 µM [2]: 51.1 ± 4.99%
- inhibition at 5 µM ([3]; CHO, T480A, 5 μM HMQ1611, late current at +30 mV, n = 7, p < 0.01 vs. WT): 15.3 ± 2.5%
- fold decrease in blocking potency compared with IC50 of WT channel ([3]; T480A vs WT): 7 fold
- inhibition at 5 µM ([4]; CHO, V505A, 5 μM HMQ1611, late current at +30 mV, n = 7, p < 0.01 vs. WT): 44 ± 4.4%
- fold decrease in blocking potency compared with IC50 of WT channel ([4]; V505A vs WT): 3 fold
- IC50 ([4]; V505A, Hill fit, n = 7): 6.44 ± 0.18 µM
- inhibition at 5 µM ([5]; CHO, I508A, 5 μM HMQ1611, late current at +30 mV, n = 7, p < 0.01 vs. WT): 16.2 ± 2.09%
- fold decrease in blocking potency compared with IC50 of WT channel ([5]; I508A vs WT): 5 fold
- IC50 ([5]; I508A, Hill fit, n = 7): 10.5 ± 0.41 µM
- inhibition at 5 µM [6]: 11.2 ± 2.24%
- inhibition at 5 µM [7]: 47.2 ± 3.86%
- inhibition at 5 µM ([8]; CHO, V516A, 5 μM HMQ1611, late current at +30 mV, n = 6, p < 0.01 vs. WT): 44.6 ± 5.48%
- fold decrease in blocking potency compared with IC50 of WT channel ([8]; V516A vs WT): 4 fold
